Measurements taken from US20130178436A1, “COMPOSITION FOR PREVENTING, IMPROVING, OR TREATING RENAL DISEASE INCLUDING MAILLARD BROWNING REACTION PRODUCTS OF PANAX SPECIES PLANT EXTRACT” (Korea Institute of Science and Technology, priority 2012, published 2013).
Marks after values point to notes of the source that are not given here.

What was measured:
LLC-PK1 cells = test: Protective activity for renal cells against AAPH-induced oxidative damage (MTT viability); type: cell-based; conditions: 10 mM AAPH
From the text: Renal cells, i.e., LLC-PK1 cell lines, are vulnerable to oxidative damage, and AAPH, which is a radical releasing agent, combines with oxygen molecules at a very rapid speed to produce a peroxyl radical and trigger lipid peroxidation, resulting in cytotoxicity (Miki et al., Arch. Biochem. Biophy., 258(2), 373-380, 1987). Thus, a protective activity for renal cells may be evaluated using such an oxidative damage of the LLC-PK1 cell lines using AAPH.
A protective effect for nephrotoxicity was evaluated using renal cells (LLC-PK1) with reference to a method reported in the publication (Yokozawa et al., Food Chem., 48, pp5068-5073, 2000) as follows.
First, the LLC-PK1 cells were cultured in an incubator with conditions of 37° C., 95% air, and 5% CO2 by using a DMEM/F12 medium (Gibco BRL Life Technologies, Grand Island, NY, USA) supplemented with 5% fetal bovine serum (Gibco BRL Life Technologies), 50 units/ml of penicillin G, and 50 μg/ml of streptomycin (Gibco BRL Life Technologies). The incubated LLC-PK1 cells were introduced into a 96-well incubation plate at a concentration of 10^4 […] and then stabilized for 2 hours. Afterwards, a radical generating reagent (i.e., 10 mM AAPH dissolved in a medium) was added to each well and cultured for 24 hours, and 50 μl of an MTT (1 mg/ml) reagent was then added to each well and incubated at 37° C. 4 hours thereafter, the medium containing MTT was removed and 100 μl of dimethyl sulfoxide was added to each well. Then, absorbance of the sample was measured using a detection wavelength of 540 nm in a SPECTRAmax 340PC (Molecular Devices, Sunnyvale, Calif., USA) microplate reader and a viability of the LLC-PK1 cells was measured using the absorbance thereof.

[1] = DPPH radical scavenging ability (antioxidative activity); type: biochemical; conditions: 60 μM DPPH, 30 minutes; FIGS. 5 to 13
Procedure: A DPPH radical scavenging ability was evaluated using a modified method from that described by Hatano et al (Hatano et al., Chem. Pharm. Bull., 37(8), pp 2016-2021, 1989). 100 μl of 60 μM DPPH was added to 100 μl of each of a plurality of sample solutions, the resultant solution was stirred and left for 30 minutes, and the absorbance of the resultant mixture was measured at 540 nm. An antioxidative activity (electron donating ability) was confirmed by measuring a decreasing ratio in absorbances of experimental groups comparing with a control of the sample solutions.

| Compound | protective activity for renal cells (in words) (LLC-PK1 cells) | Cell viability (LLC-PK1 cells; sample 10 μg/ml, 24 hours, MTT) | DPPH radical scavenging ability (in words) [1] | viability at 10 µg/mL (LLC-PK1 cells; Sus scrofa, sample 10 μg/ml, 24 hours, MTT, read-out: Cell viability) [%] | viability at 100 µg/mL (LLC-PK1 cells; Sus scrofa, sample 100 μg/ml, 24 hours, MTT, read-out: Cell viability) [%] |
| --- | --- | --- | --- | --- | --- |
| CC(C)=CCC[C@](C)(O[C@@H]1O[C@H](CO)[C@@H](O)[C@H](O)[C@H]1O)[C@H]1CC[C@]2(C)[C@@H]1[C@H](O)C[C@@H]1[C@@]3(C)CC[C@H](O)C(C)(C)[C@@H]3[C@@H](O[C@@H]3O[C@H](CO)[C@@H](O)[C@H](O)[C@H]3O[C@@H]3O[C@@H](C)[C@H](O)[C@@H](O)[C@H]3O)C[C@]12C [ginsenoside Re] | inhibited cell damage at a high concentration | 89.6 ± 9.7^a % | low reactive oxygen scavenging ability |  |  |
| N=C(N)NN [aminoguanidine] |  |  |  | 86.7 ± 14.2 | 88 ± 4.1 |
